Consider 4 molecules from patent publication US8742110B2, “Spiroxazolidinone compounds” (Merck Sharp & Dohme Corp., priority 2010, dated 2014).

pIC50: −log10 of the molar value. Counter-ions that a name gives are not always drawn.

This assay deals with SSTR5 (Homo sapiens (Human), UniProt P35346). Put plainly: SSTR5 binding assay. As to conditions: CHO-K1 membranes expressing cloned human SSTR5. Put shortly:
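Competition binding on membranes from CHO-K1 cells stably expressing cloned human receptor, using radiolabeled somatostatin in 50 mM Tris-HCl pH 7.8 with EGTA, MgCl2 and protease inhibitors. Unlabeled compounds tested from 0.01 nM to 10,000 nM.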

The term pIC50 denotes the IC50 on a negative log10 scale, so that one unit is a factor of ten.

Chain of SSTR5 (P35346 whole entry): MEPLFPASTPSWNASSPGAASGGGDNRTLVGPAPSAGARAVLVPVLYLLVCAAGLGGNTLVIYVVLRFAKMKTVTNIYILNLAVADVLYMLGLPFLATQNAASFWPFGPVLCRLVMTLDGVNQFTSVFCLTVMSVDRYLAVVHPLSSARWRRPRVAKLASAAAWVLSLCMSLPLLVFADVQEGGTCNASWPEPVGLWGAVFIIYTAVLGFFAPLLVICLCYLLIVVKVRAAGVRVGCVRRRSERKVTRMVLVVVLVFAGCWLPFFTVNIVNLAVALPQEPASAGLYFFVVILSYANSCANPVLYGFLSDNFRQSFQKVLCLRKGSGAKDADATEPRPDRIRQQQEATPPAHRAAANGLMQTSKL

In turn, `CCOc1ccc(-c2nn(-c3ccccc3)cc2CN2CCC3(CC2)CN(c2ccc(C(=O)O)cc2)C(=O)O3)cc1` [Example 1-12, 4-(8-{[3-(4-Ethoxyphenyl)-1-phenyl-1H-pyrazol-4-yl]methyl}-2-oxo-1-oxa-3,8-diazaspiro[4.5]dec-3-yl)benzoic acid, TFA salt] had a pIC50 of 8.27.

With `COc1ccccc1-c1nn(C(C)(C)C)cc1CN1CCC2(CC1)CN(c1ccc(C(=O)O)cc1)C(=O)O2` [Example 1-14, 4-(8-{[1-tert-butyl-3-(2-Methoxyphenyl)-1H-pyrazol-4-yl]methyl}-2-oxo-1-oxa-3,8-diazaspiro[4.5]dec-3-yl)benzoic acid, TFA salt], the pIC50 (TFA salt) is 8.33.

In the case of `CCOc1cc(CN2CCC3(CC2)CN(c2ccc(C(=O)O)cc2F)C(=O)O3)c(-c2ccc(F)c(F)c2F)cc1C` [Example 4-21, 4-{8-[(4-Ethoxy-2′,3′,4′-trifluoro-5-methylbiphenyl-2-yl)methyl]-2-oxo-1-oxa-3,8-diazaspiro[4.5]dec-3-yl}-3-fluorobenzoic acid, TFA salt], the pIC50 was 9.40.

On to `Cc1cc(CN2CCC3(CC2)CN(c2ccc(C(=O)O)cc2)C(=O)O3)cc2c1OCCC2C` (stereo not shown) [Example 5-16, 4-{8-[(4,8-Dimethyl-3,4-dihydro-2H-chromen-6-yl)methyl]-2-oxo-1-oxa-3,8-diazaspiro[4.5]dec-3-yl}benzoic acid, TFA salt], for which the pIC50 is 8.74.
